Test results as given in article PMC9899896, “Application of a new approach methodology (NAM)-based strategy for genotoxicity assessment of data-poor compounds” (Frontiers in Toxicology, 2023).
Like-named read-outs stand apart in the source and are kept apart here.

Tests used:
[1] = test system: human lymphoblastoid TK6 cells; experiment: In vitro MicroFlow assay (flow cytometry-based micronucleus test); conditions: for MicroFlow summary classification (MN induction): TK6 cells, 4H exposure, 24-h sampling; for MicroFlow %MN response (text): positive: >2.5 fold-increase in %MN and p < 0.05 vs vehicle
[2] = test system: human lymphoblastoid TK6 cells; experiment: TGx-DDI transcriptomic biomarker classification (TempO-Seq S1500+) and BMC modeling; conditions: for Strength / consistency of TGx-DDI response (text): across concentrations and the three statistical analyses; for TGx-DDI classification: overall call from 2-DC, PCA, NSC-PA, S9 condition as in Figure 1; for TGx-DDI summary classification: TK6 cells, 4H exposure
[3] = test system: human lymphoblastoid TK6 cells; experiment: MultiFlow DNA Damage assay (γH2AX, p53, p-H3, polyploidy); assay type: cell-based
Method: Treated cells were gently resuspended and 25 µL/well was mixed thoroughly with the labeling solution. The plate was incubated for 30 min at room temperature shielded from light.
The γH2AX and p53 endpoints were measured based on their median fluorescence intensity (i.e., mean channel fluorescence or MCF) relative to the DMSO solvent control. The p-H3 and polyploidy endpoints were measured based on their frequencies among all events (i.e., all 2n–4n and polyploidy (8n) DNA content). The equations for calculating γH2AX shift, nuclear p53 shift, % polyploidy, and % p-H3 positive events are shown below.
Latex microspheres were used as counting beads to determine nuclear density.
Litron developed Global Evaluation Factors (GEF) to identify a biologically significant increase in select biomarker levels.
A clastogenic or aneugenic call required two successive concentrations that met or exceeded the GEFs in at least 2 of the 4 respective MoA biomarkers. Chemicals that met or exceeded two GEFs in a single non-cytotoxic concentration were designated as “weak” responses. In cases where both clastogen and aneugen biomarkers exceeded the GEF the MoA was considered pan-genotoxic. In cases where less than two biomarkers met the GEFs, the call was non-genotoxic.

chromosome damage [4] = test system: chromosome damage; set-up: method as in De Boeck et al., 2005; conditions: ref De Boeck et al., 2005; cited from earlier work
[5] = test system: human lymphoblastoid TK6 cells
chromosome damage [6] = test system: chromosome damage; set-up: method as in Matsushima et al., 1999; Von Der Hude et al., 2000; conditions: ref Matsushima et al., 1999; Von Der Hude et al., 2000; cited from earlier work
[7] = test system: human lymphoblastoid TK6 cells; experiment: Viability assessment (propidium iodide fluorescence, flow cytometry); conditions: TK6 cells, ± S9, quantified at 24 h via propidium iodide
[8] = test system: human lymphoblastoid TK6 cells; experiment: Integrated NAM-based test strategy (TGx-DDI + MicroFlow + MultiFlow; ToxPi integration of BMCs); conditions: from TGx-DDI, MicroFlow and MultiFlow calls
[9] = Viability assessment (propidium iodide fluorescence, flow cytometry); conditions: human, TK6 lymphoblastoid cells with S9
MN = conditions: known apoptogens; ref Avlasevich et al., 2021; cited from earlier work
[10] = follow-up assay; ref Avlasevich et al., 2021; cited from earlier work
HepaRG™ cells [11] = test system: HepaRG™ cells; set-up: method as in Buick et al., 2020; conditions: ref Buick et al., 2020; cited from earlier work
HepaRG™ cells [12] = test system: HepaRG™ cells; set-up: method as in Buick et al., 2020; conditions: ref Buick et al., 2020; cited from earlier work; remark: listed apart in the source
[13] = +S9, TK6 cells, 4H and 24H sampling
[14] = -S9, TK6 cells, 4H and 24H sampling
[15] = +S9 (rat liver S9), 3 h recovery

Molecule	MicroFlow summary classification (MN induction) ([1]; +S9)	MicroFlow summary classification (MN induction) ([1]; -S9)	MicroFlow %MN response (text) [1]	TGx-DDI classification [2]	MultiFlow summary classification (call and MoA) [3, 13]	MultiFlow summary classification (call and MoA) [3, 14]	TGx-DDI summary classification [2, 15]	TGx-DDI summary classification ([2]; -S9)	Integrated hazard conclusion [8]	viability at 24 h [9] [%]	MicroFlow MN result (MN)	MultiFlow classification [10]	other results
Cc1c2ccccc2c(C)c2c1ccc1ccccc12 [DMBA, 7,12-dimethylbenz[a]anthracene, reference compound]	+	+	significant fold-increases in %MN	DDI	+ C	-							Strength / consistency of TGx-DDI response (text) [2]: strong TGx-DDI response; MultiFlow biomarkers with responses ([3]; fold-increase over solvent control): 4H & 24H ɣH2AX; Chromosome damage in vivo (chromosome damage [4]): induce chromosome damage; TGx-DDI summary classification [5]: +; Chromosome damage in vitro (chromosome damage [6]): induce chromosome damage; Effect on cell viability [7]: caused a decline in viability
Nc1ccc(Cl)cc1C(=O)c1ccccc1 [NSACB 1, 2-amino-5-chlorobenzophenone]	+	+	robust fold-increase in %MN with a clear concentration-response relationship	DDI			+	-	somewhat ambiguous	43			Strength / consistency of TGx-DDI response (text) ([2]; listed as #1): weaker DDI responses; Strength / consistency of TGx-DDI response (text) ([2]; listed as NSACB #1): one DDI call at the highest concentration in the NSC-PA only; MultiFlow MoA classification [3]: non-genotoxic; MultiFlow summary classification (call and MoA) [3]: -; MultiFlow biomarkers with responses ([3]; human): moderate to robust response increase in one of the aneugenic biomarkers (i.e., 4H p-H3)
Cc1ccc(NCCO)c([N+](=O)[O-])c1 [NSACB 8, 2-[(4-methyl-2-nitrophenyl)amino]ethanol]	+	-		DDI	-	-	+	-	somewhat ambiguous	46			MicroFlow %MN response (text) ([1]; listed as 8): robust fold-increase in %MN with a clear concentration-response relationship; MicroFlow %MN response (text) ([1]; listed as #8): only tested positive with S9 conditions; Strength / consistency of TGx-DDI response (text) ([2]; listed as 8): weaker DDI responses; Strength / consistency of TGx-DDI response (text) ([2]; listed as NSACB #8): two DDI calls at the highest concentration by NSC-PA and PCA; MultiFlow MoA classification ([3]; GEF-based call, in at least one S9 condition): non-genotoxic
C[C@H]1CCC/C=C/[C@@H]2C[C@H](O)C[C@H]2[C@H](O)/C=C/C(=O)O1 [brefeldin A]											induce MN	non-genotoxicants	
COc1cc2c(c(OC)c1OC)-c1ccc(OC)c(=O)cc1[C@@H](NC(C)=O)CC2 [colchicine]													TGx-DDI classification (HepaRG™ cells [11]): negative (non-DDI); MN result (HepaRG™ cells [12]): positive
carbonyl cyanide m-chlorphenyl hydrazone [CCCP]											induce MN	non-genotoxicants	
